# Assay results taken from PMC6687188, “Novel lactate dehydrogenase inhibitors with in vivo efficacy against Cryptosporidium parvum” (PLoS Pathogens, 2019).
# Biological target: recombinant CpLDH protein (Cryptosporidium parvum, UniProt Q9GT92, F198L/K295E/R251K)
row,Structure (SMILES),MEAN CpLDH INHIBITION (%)
1,O=C1CCC(c2ccccc2)=NN1c1nc2ccccc2s1 [NSC629659],-32.05
2,O=C1c2ccccc2C(=O)c2nc(-c3ccccc3)c(-c3ccccc3)nc21 [NSC629713],-5.77
3,O=C(NCCCCCCCCNC(=O)c1cccc2ccccc12)c1cccc2ccccc12 [NSC629738],-0.22
4,CC[C@@]1(O)C(=O)OCc2c1cc1n(c2=O)Cc2cc3c(N)cccc3nc2-1 [NSC629971],-14.81
5,O=C(CCc1ccccc1)On1nnc2ccccc2c1=O [NSC630374],-20.24
6,Cn1cnc([N+](=O)[O-])c1Sc1nnnn1-c1ccccc1 [NSC631152],-45.89
7,Cn1cnc([N+](=O)[O-])c1Sc1nnc(-c2cccnc2)n1C [NSC631160],-15.11
8,O=C1c2ccccc2C(=O)c2sc(Nc3ccc(Cl)c(Cl)c3)nc21 [NSC631521],-0.12
9,O=C1c2ccccc2C(=O)c2sc(Nc3ccc(Cl)cc3)nc21 [NSC631529],-18.60
10,N#CC1=C(N)Oc2c(ccc3cccnc23)C1c1ccccc1 (centres unmarked) [NSC631583],-36.52
11,COc1ccc(Cc2nc3ccccc3s2)cc1OC [NSC632233],-7.14
12,Cc1ccc(/C=C2\CNC/C(=C\c3ccc(C)cc3)C2=O)cc1.Cl [NSC632839],-15.78
13,C=CC(=O)N1C/C(=C\c2ccccc2)C(=O)/C(=C/c2ccccc2)C1 [NSC632841],-21.11
14,O=[N+]([O-])c1ccccc1S(=O)(=O)c1ccccc1[N+](=O)[O-] [NSC633001],-15.73
15,O=C(NC(=O)c1c(Cl)nc2sccn12)Nc1ccc(Cl)cc1 [NSC633209],-19.92
16,O=C1C(c2cnc3ccccc3n2)=C(O)c2ccccc21 [NSC634224],-37.07
17,O=C(CC(=O)c1ccccc1)CC(O)(c1ccccc1)c1ccccc1 [NSC634232],-33.26
18,Cc1c(Cl)cccc1NC(=O)CC1Sc2ccccc2NC1=O (centres unmarked) [NSC634396],-17.78
19,CCOC(=O)CCn1ncc(Cl)c(Cl)c1=O [NSC634471],-23.23
20,COC(=O)C1=CC(=O)C(C(=O)Nc2ccc(OC)cc2)C(c2ccccc2)O1 (centres unmarked) [NSC634473],-29.85
21,CCc1cccc(CC)c1NC(=O)C(C#N)C1=C(Cl)C(=O)c2ccccc2C1=O (centres unmarked) [NSC634503],-5.79
22,Cn1c(=O)c2nc3sc4c(n3c2n(C)c1=O)C(=O)c1ccccc1C4=O [NSC634568],-8.97
23,O=C1C=CC(CC(=O)c2ccc3ccccc3c2)O1 (centres unmarked) [NSC634650],-31.23
24,CC(=O)/C(=C\c1cccc([N+](=O)[O-])c1)C(=O)Nc1ccccc1C [NSC634658],-26.76
25,O=S1(=O)OCCOS(=O)(=O)C1Cc1ccccc1 [NSC634863],-18.12
26,[O-][S+]1c2ccccc2N=C(c2cccc3ccccc23)CC1c1cccc2ccccc12 (centres unmarked) [NSC634926],-0.08
27,CC1=C(C(=O)NCc2ccccc2)C(c2ccccc2O)C(C(=O)NCc2ccccc2)=C(C)N1 [NSC634928],-21.25

row,Structure (SMILES),MEAN CpLDH INHIBITION (%)
1,C/C(NNC(=O)c1ccccc1O)=C1\C=Nc2ccccc2S1 [NSC635121],0.03
2,COC(=O)c1[nH]c(=S)[nH]c(=O)c1-c1ccc(Cl)cc1 [NSC635140],-15.60
3,O=C(c1ccccc1)C1OC12C(=O)Nc1c(Cl)cc(Cl)cc12 (centres unmarked) [NSC635306],-37.53
4,O=C(c1ccccc1)C(c1ccccc1)C1(O)C(=O)Nc2c(Cl)cc(Cl)cc21 (centres unmarked) [NSC635312],-41.63
5,Cc1c(Cl)ccc2c1NC(=O)C2(O)C(C(=O)c1ccccc1)c1ccccc1 (centres unmarked) [NSC635321],-39.51
6,O=C(CC1(O)C(=O)Nc2c(Cl)cc(Cl)cc21)c1ccc([N+](=O)[O-])cc1 (centres unmarked) [NSC635326],-38.78
7,O=C(CC1(O)C(=O)Nc2c(Cl)cc(Cl)cc21)c1cccc2ccccc12 (centres unmarked) [NSC635328],-47.14
8,COC(=O)/C(=N\NC(=O)c1ccccc1O)C(C#N)c1ccccc1 (centres unmarked) [NSC635337],-28.29
9,CN1CCN(CCSC2Cc3cc(Cl)ccc3Sc3ccccc32)CC1 (centres unmarked) [NSC635366],-12.08
10,O=C(N=Nc1c(O)[nH]c2ccccc12)c1ccccc1O [NSC635404],-38.57
11,Cc1cc(Cl)cc2c1NC(=O)C2(O)C(C(=O)c1ccccc1)c1ccccc1 (centres unmarked) [NSC635435],-63.48
12,O=C(CC1(O)C(=O)Nc2c(Cl)ccc(Cl)c21)c1ccc(Cl)cc1Cl (centres unmarked) [NSC635436],-79.39
13,O=C(CC1(O)C(=O)Nc2c(Cl)ccc(Cl)c21)c1ccc(Cl)cc1 (centres unmarked) [NSC635437],-7.08
14,O=C(CC1(O)C(=O)Nc2c(Cl)cc(Cl)cc21)c1cccc([N+](=O)[O-])c1 (centres unmarked) [NSC635438],-43.53
15,CC(=O)/C(C)=N/NC(=O)c1ccccc1O [NSC635441],-52.88
16,NS(=O)(=O)c1nc2nc[nH]c(=O)c2[nH]1 [NSC635448],-5.65
17,Cc1c(C(=O)C/C(=N/NC(=O)CC#N)C(N)=O)[n+](=O)c2ccccc2n1[O-] [NSC635542],-10.72
18,Cc1c(C(=O)C/C(=N\O)C(=O)Nc2cc(Cl)c(Cl)cc2Cl)[n+](=O)c2ccccc2n1[O-] [NSC635544],-233.40
19,O=[N+]([O-])c1cc(-c2nc(=S)[nH][nH]2)ccc1O [NSC635563],-59.68
20,Cc1ccccc1OCC(COC(=O)Nc1ccccc1)OC(=O)Nc1ccccc1 (centres unmarked) [NSC635824],-3.02
21,COC(=O)C(=O)C(C(=O)Nc1cccc(C)c1C)C1Sc2ccccc2NC1=O (centres unmarked) [NSC635833],-26.59
22,CC1=NC(C(C)C)C(=O)O1 (centres unmarked) [NSC635968],-7.14
23,CC(C)(C)c1ccc(OC2CCO2)cc1 (centres unmarked) [NSC635975],-52.75
24,CC1CCCC(C(=O)/C(=C/c2cccc(Cl)c2)C(=O)C(=O)O)C1 (centres unmarked) [NSC636084],-20.56
25,Cc1ccc(NC(=O)C(=O)CC(=O)c2ccccc2)cc1C [NSC636126],-16.52
26,Cc1ccccc1NC(=O)C(=O)C(C#N)c1ccccc1C (centres unmarked) [NSC636132],-58.66
27,O=C(/C=C/c1c(O)ccc2ccccc12)c1cccc(O)c1 [NSC636786],-25.27

row,Structure (SMILES),MEAN CpLDH INHIBITION (%)
1,COc1ccc(C2=Nc3ccccc3SC(C)C2)cc1 (centres unmarked) [NSC636817],-5.00
2,NC(=Nc1nc(-c2ccccn2)cc2ccccc12)c1ccccn1 [NSC637578],-28.84
3,CCOc1ccccc1NC(=O)CC1Sc2ccccc2NC1=O (centres unmarked) [NSC637680],-16.33
4,O=C1C=C(Nc2cccnc2)c2ccccc2C1=O [NSC637729],-66.55
5,O=C1C=C(NCCc2ccccc2)c2ccccc2C1=O [NSC637731],-17.56
6,CC(=O)SC(SC(C)=O)SC(C)=O [NSC637833],-64.71
7,N#CCCN(c1ccc(C=O)cc1)S(=O)(=O)c1ccccc1 [NSC637914],-47.07
8,N#CCCN(CCC#N)c1ccc(/C=C2\N=C(c3cc([N+](=O)[O-])ccc3Cl)OC2=O)cc1 [NSC637916],-14.05
9,CCN(CC)CCNc1ccc2nc(C)n3c4ccc(OC)cc4c(=O)c1c23 [NSC637993],-46.33
10,O=C1/C(=C\c2ccc(Cl)c(Cl)c2)CN(C(=O)CCN2CCOCC2)C/C1=C\c1ccc(Cl)c(Cl)c1 [NSC638646],-17.60
11,CCOC(=O)Nc1nc2ccc(Cn3cccc3)cc2[nH]1 [NSC639754],-8.79
12,Nc1ccccc1C(=O)NC(=O)Nc1ccc(Oc2ncc(Br)cn2)c(Cl)c1 [NSC639828],-42.32
13,Cc1nc(Nc2ccc(Cl)c(Cl)c2)sc1C(/C=C/c1ccc2c(c1)OCO2)=N/Nc1ccc([N+](=O)[O-])cc1[N+](=O)[O-] [NSC640335],-79.51
14,Cc1ccc(Nc2nc(C)c(C(/C=C/c3ccc(/C=C/C(=N\NC(=O)C[n+]4ccccc4)c4sc(Nc5ccc(C)cc5[N+](=O)[O-])nc4C)cc3)=N/NC(=O)C[n+]3ccccc3)s2)c([N+](=O)[O-])c1.Cl [NSC640342],-89.53
15,CN(C)C[C@H]1CC[C@@H](CN(C)C)C1=O.Cl [NSC640391],-1.88
16,Cc1nc(-c2cccnc2)sc1C(=O)/C=C/c1ccc(Cl)cc1Cl [NSC640580],-13.66
17,Cc1nc(-n2nc(-c3ccccc3)cc2-c2ccccc2)sc1C(=O)/C=C/c1ccc(Cl)c(Cl)c1 [NSC640584],-6.68
18,CC1=CC(C)(C)N=C2SC(c3ccc(N)cc3)=NN12 [NSC640624],-5.57
19,S=C(Nc1ccccc1)N(/N=C/C=C/c1ccccc1)c1nnc(-c2ccccc2)c(-c2ccccc2)n1 [NSC640637],-17.02
20,BrC(/C=N/Nc1nnc(-c2ccccc2)c(-c2ccccc2)n1)C(Br)c1ccccc1 (centres unmarked) [NSC640638],-14.60
21,N#Cc1ccccc1NC(=O)C(=O)C(C(=O)c1ccccc1F)C1OC(=O)c2ccccc21 (centres unmarked) [NSC640974],-7.97
22,Cc1ccc(C)c(NC(=O)C(=O)C(C(=O)c2ccc3ccccc3c2)C2OC(=O)c3ccccc32)c1 (centres unmarked) [NSC640985],-66.15
23,Cc1ccccc1NC(=O)C(=O)C(C(=O)c1ccccc1F)C1OC(=O)c2ccccc21 (centres unmarked) [NSC641228],-51.30
24,O=C(NC1=C(Cl)C(=O)c2ccccc2C1=O)C(=O)C(C(=O)c1ccc2ccccc2c1)C1OC(=O)c2ccccc21 (centres unmarked) [NSC641233],-51.96
25,COC(=O)c1ccccc1NC(=O)C(=O)CC(=O)c1ccccc1NC1=CC(=O)C(=O)c2ccccc21 [NSC641240],-190.19
26,O=C(CC(=O)c1ccccc1NC1=Cc2ccccc2C(=O)C1=O)C(=O)NC1=C(Cl)C(=O)c2ccccc2C1=O [NSC641245],-19.61
